What was measured:
Type in all cases: functional
Mus musculus [1] = organism: Mus musculus; experiment: Tested for antagonism of oxotremorine hypothermia (OX) in mice
Mus musculus [2] = organism: Mus musculus; experiment: Tested for potentiation of yohimbine toxicity in aggregated mice(Y)
Mus musculus [3] = organism: Mus musculus; experiment: Tested for antagonism of nicotine-induced death (D) in mice
Mus musculus [4] = organism: Mus musculus; experiment: Tested for stereotyped gnawing and licking behavior of mice pretreated with apomorphine (AG)
Mus musculus [5] = organism: Mus musculus; experiment: Tested for potentiation of gamma-butyrolactone induced sleep (gamma-B) in mice
Mus musculus [6] = organism: Mus musculus; experiment: Tested for antagonism of nicotine-induced tonic extensor convulsions (TE) in mice
Mus musculus [7] = organism: Mus musculus; experiment: Tested for antagonism of bicuculline-induced tonic-extensor convulsions (B) in mice
Mus musculus [8] = organism: Mus musculus; experiment: Tested for antagonism of pentylenetetrazole-induced clonic convulsions (P) in mice
Mus musculus [9] = organism: Mus musculus; experiment: Prolongation of hypoxic survival time (HS) in mice

Structure (SMILES)	ED50 (Mus musculus [1])	ED50 (Mus musculus [2])	ED50 (Mus musculus [3])	ED50 (Mus musculus [4])	ED50 (Mus musculus [5])	ED50 (Mus musculus [6])	ED50 (Mus musculus [7])	ED50 (Mus musculus [8])	ED50 (Mus musculus [9])
CNC(C)c1nnc2n1-c1ccc(Cl)cc1C(c1ccccc1)=NC2 (configuration not stated)	> 50 mg/kg	30 mg/kg	1 mg/kg	50 mg/kg	3.7 mg/kg	0.9 mg/kg	9 mg/kg	4.4 mg/kg	0.5 mg/kg
CN(C)Cc1nnc2n1-c1ccc(Br)cc1C(c1ccccn1)=NC2	12.5 mg/kg	29.7 mg/kg	1 mg/kg	> 50 mg/kg	1.3 mg/kg	1 mg/kg	1.3 mg/kg	1.9 mg/kg	30 mg/kg
Clc1ccc2c(c1)C(c1ccccc1)=NCc1nnc(CCCN3CCCC3)n1-2	> 50 mg/kg	42 mg/kg	16 mg/kg	25 mg/kg	35.4 mg/kg	14 mg/kg	> 50 mg/kg	4.4 mg/kg	> 50 mg/kg
Clc1ccc2c(c1)C(c1ccccc1)=NCc1nnc(CNC3CC3)n1-2	> 50 mg/kg	> 50 mg/kg	0.28 mg/kg	> 50 mg/kg	1.1 mg/kg	0.25 mg/kg	1.6 mg/kg	3.1 mg/kg	40 mg/kg
Clc1ccc2c(c1)C(c1ccccc1)=NCc1nnc(CN3CCN(c4ccccc4)CC3)n1-2	> 30 mg/kg	> 30 mg/kg	159 mg/kg	> 30 mg/kg	> 30 mg/kg	159 mg/kg	> 30 mg/kg	> 30 mg/kg	> 50 mg/kg
C#CCN(C)Cc1nnc2n1-c1ccc(Cl)cc1C(c1ccccc1Cl)=NC2	> 50 mg/kg	> 50 mg/kg	0.045 mg/kg	21 mg/kg	0.1 mg/kg	0.036 mg/kg	0.1 mg/kg	0.021 mg/kg	0.4 mg/kg
CCN(CC)CCc1nnc2n1-c1ccc(Cl)cc1C(c1ccccc1)=NC2	42 mg/kg	> 50 mg/kg	2 mg/kg	> 50 mg/kg	15 mg/kg	2 mg/kg	> 50 mg/kg	25 mg/kg	40 mg/kg
Clc1ccc2c(c1)C(c1ccccc1)=NCc1nnc(CNCC3CC3)n1-2	> 50 mg/kg	50 mg/kg	0.2 mg/kg	> 50 mg/kg	1.3 mg/kg	0.2 mg/kg	1.9 mg/kg	3.1 mg/kg	1 mg/kg
CN1C(=O)CN=C(c2ccccc2)c2cc(Cl)ccc21 [DIAZEPAM]	> 50 mg/kg	> 50 mg/kg	0.28 mg/kg	> 50 mg/kg	0.035 mg/kg	0.28 mg/kg	2.6 mg/kg	0.1 mg/kg	0.2 mg/kg
CN(C)CCc1nnc2n1-c1ccc(Cl)cc1C(c1ccccc1)=NC2	6 mg/kg	30 mg/kg	2.5 mg/kg	28 mg/kg	15 mg/kg	2.8 mg/kg	21 mg/kg	25 mg/kg	> 20 mg/kg
NCCc1nnc2n1-c1ccc(Cl)cc1C(c1ccccc1)=NC2	4.4 mg/kg	50 mg/kg	6.3 mg/kg	35 mg/kg	7.4 mg/kg	7.1 mg/kg	17.7 mg/kg	10.5 mg/kg	> 50 mg/kg
Clc1ccc2c(c1)C(c1ccccc1)=NCc1nnc(CN3CCCC3)n1-2	56 mg/kg	100 mg/kg	4.5 mg/kg	14.9 mg/kg	7.4 mg/kg	3.6 mg/kg	12.5 mg/kg	17.7 mg/kg	2 mg/kg
CN(Cc1nnc2n1-c1ccc(Cl)cc1C(c1ccccc1)=NC2)C1CC1	> 50 mg/kg	> 50 mg/kg	0.28 mg/kg	> 50 mg/kg	1.9 mg/kg	0.55 mg/kg	3.1 mg/kg	3.7 mg/kg	6 mg/kg
CNCc1nnc2n1-c1ccc(Cl)cc1C(c1ccccc1)=NC2	3.7 mg/kg	> 50 mg/kg	0.18 mg/kg	12.5 mg/kg	0.1 mg/kg	0.16 mg/kg	0.5 mg/kg	0.4 mg/kg	40 mg/kg
CN(C)CCCc1nnc2n1-c1ccc(Cl)cc1C(c1ccccc1)=NC2	75 mg/kg	> 100 mg/kg	10 mg/kg	42 mg/kg	36.6 mg/kg	10 mg/kg	56 mg/kg	13.3 mg/kg	> 50 mg/kg
C=CCN(C)Cc1nnc2n1-c1ccc(Cl)cc1C(c1ccccc1)=NC2	> 50 mg/kg	> 50 mg/kg	1.1 mg/kg	> 50 mg/kg	1.6 mg/kg	1.1 mg/kg	3.7 mg/kg	4.4 mg/kg	> 50 mg/kg
C=CCNCc1nnc2n1-c1ccc(Cl)cc1C(c1ccccc1)=NC2	> 50 mg/kg	> 50 mg/kg	0.28 mg/kg	> 50 mg/kg	1.9 mg/kg	0.55 mg/kg	3.1 mg/kg	3.7 mg/kg	6 mg/kg
CN(C)Cc1nnc2n1-c1ccccc1C(c1ccccc1)=NC2	12.5 mg/kg	35.4 mg/kg	2.8 mg/kg	3.1 mg/kg	6.2 mg/kg	2.5 mg/kg	50 mg/kg	6.2 mg/kg	> 50 mg/kg
CN(C)Cc1nnc2n1-c1ccc(Cl)cc1C(c1ccccc1)NC2 (configuration not stated)	> 50 mg/kg	> 50 mg/kg	25 mg/kg	> 50 mg/kg	5.3 mg/kg	25 mg/kg	42 mg/kg	14.9 mg/kg	> 50 mg/kg
Clc1ccc2c(c1)C(c1ccccc1)=NCc1nnc(CCCN3CCOCC3)n1-2	> 50 mg/kg	> 50 mg/kg	5.6 mg/kg	> 50 mg/kg	10 mg/kg	5.6 mg/kg	7.1 mg/kg	10 mg/kg	7 mg/kg
CCN(CC)CCCc1nnc2n1-c1ccc(Cl)cc1C(c1ccccc1)=NC2	31.6 mg/kg	56 mg/kg	13 mg/kg	100 mg/kg	> 100 mg/kg	11 mg/kg	> 100 mg/kg	> 100 mg/kg	> 50 mg/kg
NOCc1nnc2n1-c1ccc(Cl)cc1C(c1ccccc1)=NC2	12.5 mg/kg	> 50 mg/kg	0.08 mg/kg	42 mg/kg	0.84 mg/kg	0.1 mg/kg	0.2 mg/kg	0.2 mg/kg	0.7 mg/kg
CN(C)CCc1nnc2n1-c1ccc(Cl)cc1C(c1ccccc1Cl)=NC2	> 50 mg/kg	29.7 mg/kg	0.28 mg/kg	6.3 mg/kg	0.4 mg/kg	0.28 mg/kg	0.5 mg/kg	0.3 mg/kg	1.3 mg/kg

— ChEMBL document CHEMBL1121629, “1-(Aminoalkyl)-6-aryl-4-H-s-triazolo[4,3-a][1,4]benzodiazepines with antianxiety and antidepressant activity” (1980)
